Data reported in patent publication US8232273B2, “Heterocyclic compounds and methods of use” (Genentech, Inc., priority 2008, dated 2012).

What was measured:
[1] = target: T1, Bcl-xL (GST-Bcl-xL) (Homo sapiens, UniProt Q07817); test: TR-FRET binding assay, competition with F-Bak for the Bcl-xL binding site; details: values listed in the order of Table 1, read-out: TR-FRET assay results (Ki), Bcl-xL
[2] = target: T1, Bcl-xL (GST-Bcl-xL); test: AlphaScreen Bcl-xL binding assay, competition with biotinylated Bim peptide; parameters: made in house; details: values listed in the order of Table 1; read-out: Alphascreen results (IC50) against the Bcl-xL protein
Source text: The measurement of competition of compounds of the invention with Bim26-mer for a Bcl-2 family protein binding site using an Alpha Screen Bcl-xL binding assay:
The BH3 proteins AlphaScreen™ assay was used to identify active small molecules Bcl-2 family protein screen, e.g., Bcl-xL, hmMcl-1 screen.
The beads come in close proximity when the protein and the peptides interact. Donor beads contain a photosensitiser that converts oxygen to an excited form of O2 at an excitation of 680 nm. Energy is transformed from the singlet oxygen and reacts with chemiluminescers on the acceptor bead, resulting in light emission at 520-620 nm. […] With this information, the IC50 of each compound was calculated
GST-Bcl-xL, GST-hmMcl-1 and biotinylated GST proteins were prepared in-house and were stored as stock solutions at −80° C. The biotinylated-Bak, and biotinylated-Bim peptides were purchased from Auspep and were stored as 500 μM stock solutions in 100% DMSO at −80° C. […] DMSO was purchased from AnalaR.
Compounds of the invention were prepared as 10 mM stocks with 100% DMSO on the day prior to performing the assay. […] To achieve a final compound concentration of 1 μM, in a separate matrical plate, 28 μL of 100% DMSO and 2 μL of 10 mM compound was added to a well, mixed well, 2 μL of this solution was taken and added to 38 μL of 100% DMSO. 20 μL of this solution was added to the test matrical plate. Several control compounds were included in the test plates. For the control wells 15 μL 100% DMSO only was added to the appropriate wells of each plate. The compound plates were then serially diluted 2 fold using the MiniTrak. Once titrations were complete, the compound plate was immediately covered with a foil seal to prevent evaporation.
The assay and bead buffers were prepared fresh. Each titrated compound plate was assayed in duplicate. The following volumes were sufficient to run 12 Proxiplates (4 assay plates run in duplicate in each of Bclxl, hmMcl and counter assays)
Protein and Peptide Preparation; and Assay Performance • 1. The assay and bead buffers were used to prepare the acceptor and donor solutions. ALPHASCREEN™ beads are light sensitive and therefore prepared in a darkened room. 2.5 μL of beads were added per 1 mL of buffer. • 2. The volume of protein or peptide to add was calculated using the following formula:
V2=Volume of stock protein/Peptide to add to Acceptor/Donor solution • 3. The assay components were prepared as separate Acceptor and Donor Solutions. The Acceptor Solution contained Acceptor beads and target protein, while the Donor Solution contained Donor beads and biotinylated peptide.
• 4. After the solutions were prepared, they were left to incubate for 30 minutes at room temperature to allow the beads to bind to the protein and the peptide. • 5. 50 μL of Bcl-xL solution, 50 μL of hmMcl-1 solution and 50 μL of biotinylated-GST were added into separate deep wells on an assay plate. A control 50 μL Assay/Bead buffer was added separate well plates (no protein). • 6. 50 μL of Bim solution and 50 μL of Bak solution were added into separate deep well plates. • 7. Transfer 0.3 μL it of sample from the compound plate into each assay plate. • 8. Incubated for 30 mins at RT, then add 5 μL of the Donor solution. After addition of the Donor solution, tapped plates gently and sealed individually with adhesive film. • 9.
The percent inhibition was calculated using the following equation:
[formula] • x=RFU obtained after compound treatment • μ^−=RFU obtained for the negative controls (no protein controls) • μ^+=RFU obtained for the positive controls (DMSO vehicle controls)

T1 sequence (Q07817 whole entry, species assumed): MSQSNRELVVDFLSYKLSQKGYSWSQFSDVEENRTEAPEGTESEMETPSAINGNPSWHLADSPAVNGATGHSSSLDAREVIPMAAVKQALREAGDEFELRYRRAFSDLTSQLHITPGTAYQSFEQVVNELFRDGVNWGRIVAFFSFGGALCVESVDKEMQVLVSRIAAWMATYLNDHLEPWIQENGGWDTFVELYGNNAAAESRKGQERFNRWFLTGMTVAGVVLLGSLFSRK

SMILES	Ki [1]	IC50 [2]
N#CC1Cc2cc(OCCCc3sc(N4CCc5cccc(C(=O)Nc6nc7ccccc7s6)c5C4)nc3C(=O)O)ccc21 (centres unmarked) [Example 25, 2-(8-(benzo[d]thiazol-2-ylcarbamoyl)-3,4-dihydroisoquinolin-2(1H)-yl)-5-(3-(1-cyano-1,2-dihydrocyclobutabenzen-4-yloxy)propyl)thiazole-4-carboxylic acid]	0.3 nM	0.9 nM
N#CC1(c2ccc(OCCCc3sc(N4CCc5cccc(C(=O)Nc6nc7ccccc7s6)c5C4)nc3C(=O)O)cc2)CCC1 [Example 26, 2-(8-(benzo[d]thiazol-2-ylcarbamoyl)-3,4-dihydroisoquinolin-2(1H)-yl)-5-(3-(4-(1-cyanocyclobutyl)phenoxy)propyl)thiazole-4-carboxylic acid]	3 nM	5 nM
N#Cc1c(-c2ccc(O)cc2)n[nH]c1NCCCc1sc(N2CCc3cccc(C(=O)Nc4nc5ccccc5s4)c3C2)nc1C(=O)O [Example 32, 2-(8-(benzo[d]thiazol-2-ylcarbamoyl)-3,4-dihydroisoquinolin-2(1H)-yl)-5-(3-(4-cyano-3-(4-hydroxyphenyl)-1H-pyrazol-5-ylamino)propyl)thiazole-4-carboxylic acid]	17 nM	50 nM
O=C(Nc1nc2ccccc2s1)c1cccc2c1CN(c1nc(C(=O)O)c(CCCN3CCCCC3)s1)CC2 [Example 20, 2-(8-(benzo[d]thiazol-2-ylcarbamoyl)-3,4-dihydroisoquinolin-2(1H)-yl)-5-(3-(piperidin-1-yl)propyl)thiazole-4-carboxylic acid]	3 nM	8 nM
O=C(Nc1nc2ccccc2s1)c1cccc2c1CN(c1nc(C(=O)O)c(CCCOc3ccc4c5c3CCCN5CCC4)s1)CC2 [Example 27, 2-(8-(benzo[d]thiazol-2-ylcarbamoyl)-3,4-dihydroisoquinolin-2(1H)-yl)-5-(3-(1,2,3,5,6,7-hexahydropyrido[3,2,1-ij]quinolin-8-yloxy)propyl)thiazole-4-carboxylic acid]	1 nM	7 nM
Cc1ccccc1-c1ccc(N2CCc3cccc(C(=O)Nc4nc5ccccc5s4)c3C2)nc1C(=O)O [Compound 126, 6-(8-(benzo[d]thiazol-2-ylcarbamoyl)-3,4-dihydroisoquinolin-2(1H)-yl)-3-o-tolylpicolinic acid]	197 nM	77.6 nM
Nc1nc2ccccc2n1-c1ccc(OCCCc2sc(N3CCc4cccc(C(=O)Nc5nc6ccccc6s5)c4C3)nc2C(=O)O)cc1 [Example 77, 5-(3-(4-(2-amino-1H-benzo[d]imidazol-1-yl)phenoxy)propyl)-2-(8-(benzo[d]thiazol-2-ylcarbamoyl)-3,4-dihydroisoquinolin-2(1H)-yl)thiazole-4-carboxylic acid]	7 nM	34 nM
CCCN(CCc1ccc(OCCCc2sc(N3CCc4cccc(C(=O)Nc5nc6ccccc6s5)c4C3)nc2C(=O)O)cc1)CC1CCCc2c1ccc(OC)c2OC (centres unmarked) [Example 28, 2-(8-(benzo[d]thiazol-2-ylcarbamoyl)-3,4-dihydroisoquinolin-2(1H)-yl)-5-(3-(4-(2-(((5,6-dimethoxy-1,2,3,4-tetrahydronaphthalen-1-yl)methyl)(propyl)amino)ethyl)phenoxy)propyl)thiazole-4-carboxylic acid]	1 nM	8 nM
CN(C)CCc1ccc(OCCCc2ccc(N3CCc4cccc(C(=O)Nc5nc6ccccc6s5)c4C3)nc2C(=O)O)cc1 [Example 102, 6-(8-(benzo[d]thiazol-2-ylcarbamoyl)-3,4-dihydroisoquinolin-2(1H)-yl)-3-(3-(4-(2-(dimethylamino)ethyl)phenoxy)propyl)picolinic acid]	2 nM	20 nM
O=C(Nc1nc2ccccc2s1)c1cccc2c1CN(c1nc(C(=O)O)c(CCCn3cccn3)s1)CC2 [Example 7, 5-(3-(1H-pyrazol-1-yl)propyl)-2-(8-(benzo[d]thiazol-2-ylcarbamoyl)-3,4-dihydroisoquinolin-2(1H)-yl)thiazole-4-carboxylic acid]	7 nM	25 nM
O=C(Nc1nc2ccccc2s1)c1cccc2c1CN(c1nc(C(=O)O)c(CCCn3ccnc3)s1)CC2 [Example 16, 5-(3-(1H-imidazol-1-yl)propyl)-2-(8-(benzo[d]thiazol-2-ylcarbamoyl)-3,4-dihydroisoquinolin-2(1H)-yl)thiazole-4-carboxylic acid]	6 nM	10 nM
CC1(C)[C@H]2CC[C@]1(C)C(Oc1ccccc1OCCCc1sc(N3CCc4cccc(C(=O)Nc5nc6ccccc6s5)c4C3)nc1C(=O)O)C2 (stereo partly drawn) [Example 22, 2-(8-(benzo[d]thiazol-2-ylcarbamoyl)-3,4-dihydroisoquinolin-2(1H)-yl)-5-(3-(2-((1S,4S)-1,7,7-trimethylbicyclo[2.2.1]heptan-2-yloxy)phenoxy)propyl)thiazole-4-carboxylic acid]	19 nM	50 nM
CN1CCN(c2cc(F)c(OCCCc3sc(N4CCc5cccc(C(=O)Nc6nc7ccccc7s6)c5C4)nc3C(=O)O)cc2F)CC1 [Example 108, 2-(8-(benzo[d]thiazol-2-ylcarbamoyl)-3,4-dihydroisoquinolin-2(1H)-yl)-5-(3-(2,5-difluoro-4-(4-methylpiperazin-1-yl)phenoxy)propyl)thiazole-4-carboxylic acid]	0.02 nM	0.4 nM
CN1CCN(C(=O)c2ccc(OCCCc3ccc(N4CCc5cccc(C(=O)Nc6nc7ccccc7s6)c5C4)nc3C(=O)O)cc2)CC1 [Example 98, 6-(8-(benzo[d]thiazol-2-ylcarbamoyl)-3,4-dihydroisoquinolin-2(1H)-yl)-3-(3-(4-(4-methylpiperazine-1-carbonyl)phenoxy)propyl)picolinic acid]	10 nM	140 nM
Cc1cc(N2CCN(c3nc4ccccc4s3)CC2)ccc1OCCCc1sc(N2CCc3cccc(C(=O)Nc4nc5ccccc5s4)c3C2)nc1C(=O)O [Example 29, 5-(3-(4-(4-(benzo[d]thiazol-2-yl)piperazin-1-yl)-2-methylphenoxy)propyl)-2-(8-(benzo[d]thiazol-2-ylcarbamoyl)-3,4-dihydroisoquinolin-2(1H)-yl)thiazole-4-carboxylic acid]	23 nM	117 nM
O=C(Nc1nc2ccccc2s1)c1cccc2c1CN(c1nc(C(=O)O)c(CCCOc3ccc(-c4cccnc4)cc3)s1)CC2 [Example 41, 2-(8-(Benzo[d]thiazol-2-ylcarbamoyl)-3,4-dihydroisoquinolin-2(1H)-yl)-5-(3-(4-(pyridin-3-yl)phenoxy)propyl)thiazole-4-carboxylic acid]	0.1 nM	0.7 nM
O=C(Nc1nc2ccccc2s1)c1cccc2c1CN(c1nc(C(=O)O)c(CCOc3ccc(-n4ncc5cncnc54)cc3)s1)CC2 [Example 49, 5-(2-(4-(1H-pyrazolo[3,4-d]pyrimidin-1-yl)phenoxy)ethyl)-2-(8-(benzo[d]thiazol-2-ylcarbamoyl)-3,4-dihydroisoquinolin-2(1H)-yl)thiazole-4-carboxylic acid]	12 nM	80 nM
CN(C)CCOc1ccc(OCCCc2ccc(N3CCc4cccc(C(=O)Nc5nc6ccccc6s5)c4C3)nc2C(=O)O)cc1 [Compound 132, 6-(8-(benzo[d]thiazol-2-ylcarbamoyl)-3,4-dihydroisoquinolin-2(1H)-yl)-3-(3-(4-(2-(dimethylamino)ethoxy)phenoxy)propyl)picolinic acid]	0.18 nM	0.9 nM
CN1CCN(c2cccc(OCCCc3ccc(N4CCc5cccc(C(=O)Nc6nc7ccccc7s6)c5C4)nc3C(=O)O)c2)CC1 [Example 105, 6-(8-(benzo[d]thiazol-2-ylcarbamoyl)-3,4-dihydroisoquinolin-2(1H)-yl)-3-(3-(3-(4-methylpiperazin-1-yl)phenoxy)propyl)picolinic acid]	0.3 nM	2.2 nM
